Measurements from US12275731B2, “Azaindole inhibitors of wild-type and mutant forms of LRRK2” (DANA-FARBER CANCER INSTITUTE, INC., priority 2018, dated 2025).

Key:
Test in all cases: KinomeScan profiling
Assay type in all cases: binding
INSRR = target: T1, INSRR (Homo sapiens, UniProt P14616); settings: read-out: % control
T1 construct: purchased KinomeScan®
Method in brief: (§1)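 Selectivity was assessed by binding competition at 1 μM against 468 kinases. Values below 35% of control define an interaction.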

[1] = target: T2, RSK2(Kin.Dom.2-C-terminal) (Homo sapiens, UniProt P51812); settings: read-out: % control
T2 construct: RSK2(Kin.Dom.2-C-terminal)
Method in brief: as §1

AKT2 = target: T3, AKT2 (Homo sapiens, UniProt P31751); settings: AKT2, 1 μM; read-out: % control
T3 construct: purchased KinomeScan®
Method in brief: as §1

CDK3 = CDK3 (Homo sapiens, UniProt Q00526); settings: CDK3, 1 μM; read-out: % control
Method in brief: as §1

WNK1 = WNK1 (Homo sapiens, UniProt Q9H4A3); settings: WNK1, 1 μM; read-out: % control
Method in brief: as §1

AKT1 = target: T4, AKT1 (Homo sapiens, UniProt P31749); settings: AKT1, 1 μM; read-out: % control
T4 construct: purchased KinomeScan®
Method in brief: as §1

CDC2L1 = CDC2L1 (Homo sapiens, UniProt P21127); settings: CDC2L1, 1 μM; read-out: % control
Method in brief: as §1

[2] = target: T5, RSK3(Kin.Dom.1-N-terminal) (Homo sapiens, UniProt Q15349); settings: read-out: % control
T5 construct: RSK3(Kin.Dom.1-N-terminal)
Method in brief: as §1

MAST1 = MAST1 (Homo sapiens, UniProt Q9Y2H9); settings: MAST1, 1 μM; read-out: % control
Method in brief: as §1

MEK1 = MEK1 (Homo sapiens, UniProt Q02750); settings: MEK1, 1 μM; read-out: % control
Method in brief: as §1

GRK4 = GRK4 (Homo sapiens, UniProt P32298); settings: GRK4, 1 μM; read-out: % control
Method in brief: as §1

ROS1 = ROS1 (Homo sapiens, UniProt P08922); settings: ROS1, 1 μM; read-out: % control
Method in brief: as §1

ULK2 = target: T6, ULK2 (Homo sapiens, UniProt Q8IYT8); settings: ULK2, 1 μM; read-out: % control
T6 sequence (Q8IYT8 1-1036): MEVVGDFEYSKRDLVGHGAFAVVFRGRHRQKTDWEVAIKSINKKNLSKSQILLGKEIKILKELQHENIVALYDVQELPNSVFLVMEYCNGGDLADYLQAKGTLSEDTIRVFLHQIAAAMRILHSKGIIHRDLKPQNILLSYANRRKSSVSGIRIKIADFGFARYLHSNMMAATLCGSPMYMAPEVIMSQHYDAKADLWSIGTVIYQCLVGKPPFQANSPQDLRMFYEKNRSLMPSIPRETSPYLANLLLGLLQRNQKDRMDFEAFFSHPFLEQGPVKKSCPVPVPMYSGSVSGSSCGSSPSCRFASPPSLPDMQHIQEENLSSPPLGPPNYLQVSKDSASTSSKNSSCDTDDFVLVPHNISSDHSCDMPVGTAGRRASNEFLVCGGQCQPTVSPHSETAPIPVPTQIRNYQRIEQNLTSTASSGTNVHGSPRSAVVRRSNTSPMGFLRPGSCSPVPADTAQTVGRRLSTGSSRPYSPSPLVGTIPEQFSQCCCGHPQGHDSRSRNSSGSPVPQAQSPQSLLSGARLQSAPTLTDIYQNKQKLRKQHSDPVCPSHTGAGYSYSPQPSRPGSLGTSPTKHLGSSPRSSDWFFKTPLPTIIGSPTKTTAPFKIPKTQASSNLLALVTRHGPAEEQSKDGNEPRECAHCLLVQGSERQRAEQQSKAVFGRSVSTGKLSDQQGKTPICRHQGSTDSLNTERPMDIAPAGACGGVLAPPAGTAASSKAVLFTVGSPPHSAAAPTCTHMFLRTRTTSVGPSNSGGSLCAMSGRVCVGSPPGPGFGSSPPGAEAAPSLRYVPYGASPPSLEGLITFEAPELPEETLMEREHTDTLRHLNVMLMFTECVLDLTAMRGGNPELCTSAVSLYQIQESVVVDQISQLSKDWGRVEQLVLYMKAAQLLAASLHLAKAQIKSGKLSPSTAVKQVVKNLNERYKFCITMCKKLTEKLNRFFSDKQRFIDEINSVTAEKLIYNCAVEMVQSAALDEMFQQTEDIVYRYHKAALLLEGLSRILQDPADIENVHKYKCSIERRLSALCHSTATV
Method in brief: as §1

YES = YES (Homo sapiens, UniProt P07947); settings: read-out: % control
Method in brief: as §1

Chain of MAST1 (Q9Y2H9 whole entry): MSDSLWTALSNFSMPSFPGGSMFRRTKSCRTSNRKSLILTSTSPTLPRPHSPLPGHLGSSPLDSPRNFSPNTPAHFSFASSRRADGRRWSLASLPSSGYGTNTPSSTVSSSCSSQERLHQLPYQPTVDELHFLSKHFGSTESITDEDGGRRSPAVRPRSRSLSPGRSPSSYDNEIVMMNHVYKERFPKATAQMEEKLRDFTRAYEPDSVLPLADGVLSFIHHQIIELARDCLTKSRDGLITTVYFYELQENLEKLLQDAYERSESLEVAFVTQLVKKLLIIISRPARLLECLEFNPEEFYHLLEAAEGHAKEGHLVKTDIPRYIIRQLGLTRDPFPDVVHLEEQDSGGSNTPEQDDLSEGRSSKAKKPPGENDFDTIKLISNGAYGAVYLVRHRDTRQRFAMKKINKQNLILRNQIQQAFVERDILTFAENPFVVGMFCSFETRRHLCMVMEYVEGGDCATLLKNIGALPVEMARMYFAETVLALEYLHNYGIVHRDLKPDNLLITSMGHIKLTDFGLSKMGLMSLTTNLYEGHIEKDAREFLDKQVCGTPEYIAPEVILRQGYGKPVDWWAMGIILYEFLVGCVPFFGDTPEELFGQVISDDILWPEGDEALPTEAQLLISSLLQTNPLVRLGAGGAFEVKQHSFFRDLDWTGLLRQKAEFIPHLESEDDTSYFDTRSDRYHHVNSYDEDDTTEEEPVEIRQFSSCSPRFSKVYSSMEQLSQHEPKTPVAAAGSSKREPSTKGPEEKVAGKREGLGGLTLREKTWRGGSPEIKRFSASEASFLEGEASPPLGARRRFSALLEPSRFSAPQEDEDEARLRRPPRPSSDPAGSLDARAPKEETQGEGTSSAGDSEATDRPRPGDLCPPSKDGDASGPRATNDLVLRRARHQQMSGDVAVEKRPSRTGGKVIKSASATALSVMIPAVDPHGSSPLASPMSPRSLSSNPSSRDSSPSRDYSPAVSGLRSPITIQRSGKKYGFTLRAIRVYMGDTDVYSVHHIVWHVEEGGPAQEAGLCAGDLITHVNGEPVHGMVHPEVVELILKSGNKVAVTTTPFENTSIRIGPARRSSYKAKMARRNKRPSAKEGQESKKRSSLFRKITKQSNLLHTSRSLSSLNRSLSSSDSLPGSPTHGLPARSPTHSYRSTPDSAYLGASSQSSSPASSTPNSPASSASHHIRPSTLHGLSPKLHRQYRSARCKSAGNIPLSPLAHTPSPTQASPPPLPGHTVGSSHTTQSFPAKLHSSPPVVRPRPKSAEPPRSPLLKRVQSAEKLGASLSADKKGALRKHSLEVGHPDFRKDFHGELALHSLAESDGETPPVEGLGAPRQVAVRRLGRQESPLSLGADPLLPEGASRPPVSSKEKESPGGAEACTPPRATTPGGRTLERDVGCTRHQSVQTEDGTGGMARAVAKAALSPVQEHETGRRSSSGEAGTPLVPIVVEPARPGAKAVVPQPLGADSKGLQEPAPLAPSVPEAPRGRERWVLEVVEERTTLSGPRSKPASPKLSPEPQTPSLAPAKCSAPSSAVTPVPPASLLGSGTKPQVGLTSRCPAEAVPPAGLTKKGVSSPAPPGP
Chain of CDC2L1 (P21127 whole entry): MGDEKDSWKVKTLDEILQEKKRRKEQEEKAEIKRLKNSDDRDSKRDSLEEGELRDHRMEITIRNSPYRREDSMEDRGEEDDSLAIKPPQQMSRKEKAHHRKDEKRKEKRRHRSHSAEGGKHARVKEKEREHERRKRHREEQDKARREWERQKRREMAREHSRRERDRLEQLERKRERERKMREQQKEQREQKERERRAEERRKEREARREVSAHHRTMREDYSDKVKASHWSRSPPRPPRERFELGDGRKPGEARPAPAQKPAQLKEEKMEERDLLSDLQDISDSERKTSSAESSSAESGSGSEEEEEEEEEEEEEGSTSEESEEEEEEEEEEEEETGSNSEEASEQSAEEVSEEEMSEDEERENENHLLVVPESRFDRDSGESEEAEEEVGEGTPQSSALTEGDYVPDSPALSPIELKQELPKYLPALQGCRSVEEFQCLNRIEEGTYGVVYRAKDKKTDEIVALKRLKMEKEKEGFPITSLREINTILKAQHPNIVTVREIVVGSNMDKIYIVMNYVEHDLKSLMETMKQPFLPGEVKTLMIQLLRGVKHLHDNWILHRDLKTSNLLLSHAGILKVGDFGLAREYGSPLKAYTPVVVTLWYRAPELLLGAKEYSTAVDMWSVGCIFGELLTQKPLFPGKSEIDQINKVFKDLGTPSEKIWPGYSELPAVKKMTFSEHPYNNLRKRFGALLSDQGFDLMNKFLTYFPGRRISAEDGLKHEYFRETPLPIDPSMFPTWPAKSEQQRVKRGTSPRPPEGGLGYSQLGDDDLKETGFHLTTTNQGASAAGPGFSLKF
Chain of MEK1 (Q02750 whole entry): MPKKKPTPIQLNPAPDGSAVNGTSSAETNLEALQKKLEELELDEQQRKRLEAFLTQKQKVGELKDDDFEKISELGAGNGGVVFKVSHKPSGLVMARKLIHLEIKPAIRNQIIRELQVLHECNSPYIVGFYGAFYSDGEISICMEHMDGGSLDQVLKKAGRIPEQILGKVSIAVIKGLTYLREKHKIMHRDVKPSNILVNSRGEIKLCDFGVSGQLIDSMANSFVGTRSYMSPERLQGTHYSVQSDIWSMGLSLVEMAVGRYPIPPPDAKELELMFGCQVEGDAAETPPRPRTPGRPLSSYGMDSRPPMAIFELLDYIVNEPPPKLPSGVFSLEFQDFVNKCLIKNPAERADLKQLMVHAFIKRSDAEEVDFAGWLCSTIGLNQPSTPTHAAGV
T5 sequence (Q15349 59-318 limits assumed): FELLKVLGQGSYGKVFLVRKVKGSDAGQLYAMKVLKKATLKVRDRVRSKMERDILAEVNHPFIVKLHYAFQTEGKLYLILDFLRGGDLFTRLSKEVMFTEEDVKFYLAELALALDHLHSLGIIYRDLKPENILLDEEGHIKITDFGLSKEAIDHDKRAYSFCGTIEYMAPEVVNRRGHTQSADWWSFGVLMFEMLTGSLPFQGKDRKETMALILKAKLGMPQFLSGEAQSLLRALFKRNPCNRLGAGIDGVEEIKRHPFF
Chain of GRK4 (P32298 whole entry): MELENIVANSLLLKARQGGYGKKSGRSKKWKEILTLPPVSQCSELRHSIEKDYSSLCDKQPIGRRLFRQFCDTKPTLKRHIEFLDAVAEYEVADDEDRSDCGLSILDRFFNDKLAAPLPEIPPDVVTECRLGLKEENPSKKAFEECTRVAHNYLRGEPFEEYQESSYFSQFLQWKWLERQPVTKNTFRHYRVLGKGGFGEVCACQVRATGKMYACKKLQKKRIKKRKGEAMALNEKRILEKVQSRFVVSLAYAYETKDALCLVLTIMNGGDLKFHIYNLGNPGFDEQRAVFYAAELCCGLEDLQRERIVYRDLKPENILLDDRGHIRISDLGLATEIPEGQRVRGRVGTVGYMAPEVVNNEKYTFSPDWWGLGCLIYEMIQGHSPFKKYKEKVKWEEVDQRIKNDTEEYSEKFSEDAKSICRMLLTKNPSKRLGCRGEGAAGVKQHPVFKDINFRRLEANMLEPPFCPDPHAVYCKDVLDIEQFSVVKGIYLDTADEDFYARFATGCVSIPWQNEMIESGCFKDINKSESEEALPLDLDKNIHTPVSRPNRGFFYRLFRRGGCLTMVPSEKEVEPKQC
T2 sequence (P51812 422-679 limits assumed): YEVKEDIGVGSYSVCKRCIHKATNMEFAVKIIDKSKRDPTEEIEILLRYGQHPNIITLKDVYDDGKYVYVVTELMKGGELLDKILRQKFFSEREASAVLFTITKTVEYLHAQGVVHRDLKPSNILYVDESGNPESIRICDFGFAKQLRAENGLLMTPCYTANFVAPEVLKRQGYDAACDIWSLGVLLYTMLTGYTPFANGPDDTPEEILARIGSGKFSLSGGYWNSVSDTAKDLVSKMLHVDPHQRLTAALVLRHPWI
T4 sequence (P31749 whole entry): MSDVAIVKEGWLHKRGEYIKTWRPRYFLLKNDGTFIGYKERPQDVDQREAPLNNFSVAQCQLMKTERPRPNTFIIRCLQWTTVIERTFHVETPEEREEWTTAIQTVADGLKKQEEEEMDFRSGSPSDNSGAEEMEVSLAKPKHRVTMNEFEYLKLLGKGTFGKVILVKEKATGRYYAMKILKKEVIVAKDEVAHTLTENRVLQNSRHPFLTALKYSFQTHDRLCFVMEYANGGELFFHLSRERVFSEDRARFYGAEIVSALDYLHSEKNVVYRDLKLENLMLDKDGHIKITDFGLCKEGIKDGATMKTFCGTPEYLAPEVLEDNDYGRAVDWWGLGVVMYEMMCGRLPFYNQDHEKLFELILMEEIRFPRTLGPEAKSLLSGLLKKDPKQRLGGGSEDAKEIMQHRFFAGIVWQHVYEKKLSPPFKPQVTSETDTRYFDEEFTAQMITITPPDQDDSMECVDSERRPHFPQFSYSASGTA
Chain of CDK3 (Q00526 whole entry): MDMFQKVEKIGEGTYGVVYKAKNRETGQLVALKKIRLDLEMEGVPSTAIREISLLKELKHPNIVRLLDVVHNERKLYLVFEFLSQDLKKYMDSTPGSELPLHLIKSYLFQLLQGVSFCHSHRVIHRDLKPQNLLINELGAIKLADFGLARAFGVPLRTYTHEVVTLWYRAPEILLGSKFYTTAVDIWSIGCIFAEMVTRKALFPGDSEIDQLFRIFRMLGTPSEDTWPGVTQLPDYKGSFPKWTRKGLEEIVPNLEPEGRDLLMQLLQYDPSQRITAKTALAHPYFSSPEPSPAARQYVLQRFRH

Row | Compound | remaining binding at 1 µM (INSRR) [%] | remaining binding at 1 µM [1] [%] | remaining binding at 1 µM (AKT2) [%] | remaining binding at 1 µM (CDK3) [%] | remaining binding at 1 µM (WNK1) [%] | remaining binding at 1 µM (AKT1) [%] | remaining binding at 1 µM (CDC2L1) [%] | remaining binding at 1 µM [2] [%] | remaining binding at 1 µM (MAST1) [%] | remaining binding at 1 µM (MEK1) [%] | remaining binding at 1 µM (GRK4) [%] | remaining binding at 1 µM (ROS1) [%] | remaining binding at 1 µM (ULK2) [%] | remaining binding at 1 µM (YES) [%]
1 | CNc1c(-c2cnn([C@H]3CCN(C(C)=O)C[C@@H]3F)c2)cnc2[nH]cc(Cl)c12 [Compound 77, 1-((3S,4S)-4-(4-(3-chloro-4-(methylamino)-1H-pyrrolo[2,3-b]pyridin-5-yl)-1H-pyrazol-1-yl)-3-fluoropiperidin-1-yl)ethan-1-one] | 92 | 98 | 100 | 95 | 67 | 100 | 99 | 80 | 50 | 29 | 21 | 74 | 15 | 100
2 | O=C(c1ccc(-c2cnc3[nH]cc(Cl)c3c2NC2CCCC2)cc1)N1CCC(N2CCOCC2)CC1 [Compound 101, (4-(3-chloro-4-(cyclopentylamino)-1H-pyrrolo[2,3-b]pyridin-5-yl)phenyl)(4-morpholinopiperidin-1-yl)methanone] | 84 | 83 | 84 | 97 | 90 | 96 | 94 | 66 | 70 | 94 | 14 | 73 | 98 | 100
3 | CNc1c(-c2ccc(C(=O)N3CCC(N4CCOCC4)CC3)cc2)cnc2[nH]cc(Cl)c12 [Compound 96, (4-(3-chloro-4-(methylamino)-1H-pyrrolo[2,3-b]pyridin-5-yl)phenyl)(4-morpholinopiperidin-1-yl)methanone] | 96 | 97 | 100 | 89 | 80 | 100 | 96 | 78 | 24 | 12 | 28 | 89 | 8.7 | 100
